Data: patent US9763444B2, “Compositions and methods for repelling blood-sucking and biting insects, ticks and mites” (The United States of America, as represented by the …, priority 2013, dated 2017)

What was measured:
Ae. aegypti [1] = experiment: Minimum Effective Dosage (MED) test on treated cloth, mosquito repellency; assay type: in vivo, Aedes aegypti; details: for Ae. aegypti Minimum Effective Dosage, F1 / Ae. aegypti Minimum Effective Dosage, M1 / Ae. aegypti Minimum Effective Dosage, M2 / Ae. aegypti Minimum Effective Dosage, Average: Table 2; for Ae. aegypti Minimum Effective Dosage, F1: human subject F1; for Ae. aegypti Minimum Effective Dosage, F1 / Ae. aegypti Minimum Effective Dosage, M1 / Ae. aegypti Minimum Effective Dosage, M2: highest concentration 1.500 mg/cm^2; for Ae. aegypti Minimum Effective Dosage, M1: human subject M1; for Ae. aegypti Minimum Effective Dosage, M2: human subject M2; for Ae. aegypti Minimum Effective Dosage, Average: mean of 3 volunteers
Experimental: Bioassay for mosquito repellent activity: Repellency screening test for experimental chemicals were carried out to identify candidates that might be useful repellents. The repellent efficacy was compared to that of the standard repellent, DEET. Experimental compounds were assessed in one of two ways: (1) a range of concentration was evaluated to determine the minimum effective dosage (MED) which was the concentration threshold of where the repellent began to fail and allowed bites, or (2) a predetermined concentration of each repellent was applied to cloth and the activity was evaluated over several days (or in some cases months) (Katritzky, A. R., et al., Proc. Nat. Acad. Sci. (US), 105, 7359-7364 (2008); Katritzky, A. R., et al., Journal of Med. Entomol., 47: 924-938 (2010)). When conducting assays for repellency, a failure point was also predetermined for those measurements. Since experiments described herein used about 500 female mosquitoes per test, the failure point was set at 1% (equal to 5 bites) received during a test interval. From 3 to 5 volunteers participated in the screening of each set of chemicals.
Minimum Effective Dosage (MED) Test: The MED bioassays on treated cloth were a method of screening to determine the minimum amount of a repellent needed to prevent bites. Experimental compounds were prepared in solution by combining 0.15 g of experimental chemical with 2 mL of acetone in a 7.1 mL screwtop glass vial. This solution was then serially diluted to obtain nine concentrations when applied on to the cloth patch: 1.5, 0.75, 0.375, 0.187, 0.094, 0.047, 0.023, 0.011, and 0.006 mg/cm^2. The standard N,N-diethyl-3-methylbenzamide (DEET) was also tested at the same concentration levels to serve as a control and a comparison for relative repellency. A 50 cm^2 (5 cm×10 cm) patch of muslin cloth was rolled lengthwise and placed into each of the glass vials and scaled with a screwtop so it soaked up the solution. Just prior to the experiment, the pieces of treated cloth were removed from the vials, affixed to card stock tabs (5 cm×3 cm) with staples, and hung with masking tape on a rack to dry and allow acetone to evaporate. Volunteers wore a latex glove over their hands, a nylon stocking over their arm, and then wrapped a plastic Velcro-sealed sleeve over their entire forearm with a 32 cm^2 (4 cm×8 cm) window cut-out to allow mosquitoes to bite through. The nylon stocking acted as a barrier between the dried cloth and the skin, an additional precaution with experimental compounds. Dried cloth patches were stretched across the window in the plastic sleeve and held in place with masking tape. Volunteers placed their sleeve-covered arms into a screened cage for a one minute period with approximately 500 female Ae. aegypti mosquitoes that had been preselected for host-seeking behavior using a draw box (Posey, K. H., and C. E. Schreck, Mosquito News, 41: 566-568 (1981)). […] The MED recorded was the lowest passing concentration level tested for the experimental compound. […] All human volunteers in the study provided informed consent to participate of a protocol approved by the University of Florida Human Use Institutional Review Board (IRB #636-2005).

Ae. aegypti [2] = experiment: Complete Protection Time test on treated cloth (duration of protection); assay type: in vivo, Aedes aegypti; details: Dosage 0.75 mg/cm^2 on cloth; for Duration of protection against Ae. aegypti, M-3 Days Protection: subject M-3
Experimental: Bioassay for mosquito repellent activity: Repellency screening test for experimental chemicals were carried out to identify candidates that might be useful repellents. The repellent efficacy was compared to that of the standard repellent, DEET. Experimental compounds were assessed in one of two ways: (1) a range of concentration was evaluated to determine the minimum effective dosage (MED) which was the concentration threshold of where the repellent began to fail and allowed bites, or (2) a predetermined concentration of each repellent was applied to cloth and the activity was evaluated over several days (or in some cases months) (Katritzky, A. R., et al., Proc. Nat. Acad. Sci. (US), 105, 7359-7364 (2008); Katritzky, A. R., et al., Journal of Med. Entomol., 47: 924-938 (2010)). When conducting assays for repellency, a failure point was also predetermined for those measurements. Since experiments described herein used about 500 female mosquitoes per test, the failure point was set at 1% (equal to 5 bites) received during a test interval. From 3 to 5 volunteers participated in the screening of each set of chemicals. Complete Protection Time Test: Complete protection time (CPT) on treated cloth is a method of screening that is used to determine the repellent duration for experimental chemicals that have not been examined for safe use on humans. The standard repellent DEET was used as a positive control as a benchmark by which to compare the repellents. Experimental compounds were prepared in solution by combining 0.075 g of experimental chemical with 1 mL of acetone in a 7.1-mL screwtop glass vial. The same concentration level of DEET was also prepared in this way to serve as a control and a comparison for relative repellency. A 50 cm^2 (5 cm×10 cm) patch of muslin cloth was rolled lengthwise and placed into each of the glass vials and sealed with a screwtop so it soaked up the solution. Just prior to the experiment, the pieces of treated cloth were removed from the vials, affixed to card stock tabs (5 cm×3 cm) with staples, and hung with masking tape on a rack to dry and allowed the volatile acetone to evaporate. Similar to the MED tests, volunteers wore a latex glove over their hands, a nylon stocking over their arm, and then wrapped a plastic Velcro-sealed sleeve over their entire forearm with a 32 cm^2 (4 cm×8 cm) window cut-out to allow mosquitoes to bite through. Dried cloth patches were stretched across the window in the plastic sleeve and held in place with masking tape. Volunteers placed their sleeve-covered arms into a screened cage for a one minute period with approximately 500 female Ae. aegypti mosquitoes that had been preselected for host-seeking behavior using a draw box. A cloth patch that received a 1% bite through level, equal to 5 mosquitoes that bit out of 500 mosquitoes, was considered a failure at that concentration. If 0-4 bites were received, then the treated cloth was still considered to be repellent at that concentration. The duration was recorded as the number of days an experimental chemical received a passing result, with day 0 being the day the sample was first dried. […] As with the tests conducted to determine CPT, volunteers in the study provided informed consent (IRB protocol #636-2005). The protocol was approved by the University of Florida Human Use Institutional Review Board.

Row | SMILES | mosquito repellent activity against Ae. aegypti (in words) (Ae. aegypti [1]; MED test on treated cloth) | Ae. aegypti Minimum Effective Dosage, F1 (Ae. aegypti [1]) [mg/cm^2] | Ae. aegypti Minimum Effective Dosage, M1 (Ae. aegypti [1]) [mg/cm^2] | Ae. aegypti Minimum Effective Dosage, M2 (Ae. aegypti [1]) [mg/cm^2] | Ae. aegypti Minimum Effective Dosage, Average (Ae. aegypti [1]) [mg/cm^2] | Duration of protection, Proportion to DEET (Ae. aegypti [2]) | Duration of protection against Ae. aegypti, M-3 Days Protection (Ae. aegypti [2]) [days]
1 | CC1(C)C=Cc2c(CO)ccc(Cl)c2O1 [Compound 11, (8-chloro-2,2-dimethyl-2H-chromen-5-yl)methanol] | act as mosquito repellents | 0.011 | 0.011 | 0.011 | 0.011 | 1.00 | 
2 | CC1(C)C=Cc2c(C(=O)O)ccc(Cl)c2O1 [Compound 13, 8-chloro-2,2-dimethyl-2H-chromene-5-carboxylic acid] |  | >1.500 | >1.500 | >1.500 |  | 0.50 | 1
3 | CC1(C)C=Cc2cc(CCO)ccc2O1 [Compound 9] |  | 0.375 | 0.375 | 0.375 | 0.375 | 0.50 | 1
